From ChEMBL document CHEMBL1201862, “PubChem BioAssay data set” (2004) come the findings set out here.

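How tested: cells in 96-well plates exposed to compound for 48 hours at five concentrations. GI50 = concentration required for 50% inhibition of growth.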 Activity calls are given as the source filed them. Cut-off read from the data, not from the text of the source: active = GI50 up to about 1.1 µM and inactive = higher. Where only a bound is given, the exact number is not on record here.

Test systems include A549; OVCAR-3; MCF7; HCT-116; DU-145; SR; U-251; EKVX; HOP-62; OVCAR-4; MDA-MB-435; OVCAR-8; TK-10; MDA-N; NCI-H522; MOLT-4; SN12C; NCI-H460; RXF 393.
What all share (test): NCI tumour cell line growth inhibition, 48 h

On to `CCn1c2ccccc2c2nnc(NCCCO)nc21`, for which the GI50 with A549 is > 100 µM (inactive); with OVCAR-3, > 100 µM (inactive); with MCF7, > 100 µM (inactive); in the experiment on HCT-116 it was > 100 µM (inactive); in the experiment with DU-145 it was > 100 µM (inactive); in the experiment on SR, 92.5 µM (inactive). Moreover, the GI50 in the experiment on U-251 is > 100 µM (inactive); with EKVX, 28 µM (inactive); in the experiment with HOP-62, > 100 µM (inactive); in the experiment on OVCAR-4 it was > 100 µM (inactive); in the experiment with MDA-MB-435, > 100 µM (inactive); in the experiment on OVCAR-8, > 100 µM (inactive). Further, the GI50 in the experiment on TK-10 is > 100 µM (inactive); in the experiment with MDA-N, > 100 µM (inactive); in the experiment on NCI-H522, > 100 µM (inactive); in the experiment with MOLT-4, 58.2 µM (inactive); in the experiment on SN12C it was > 100 µM (inactive); with NCI-H460, > 100 µM (inactive). Further, in the experiment on RXF 393, the GI50 was 57.9 µM (inactive).

For `CC(=O)NC1C(O)C(O)C(CO)OC1n1ncc(=O)[nH]c1=O` (stereo not given), the GI50 with A549, in the experiment on OVCAR-3, with MCF7, in the experiment with HCT-116, with DU-145 and in the experiment with SR was > 100 µM (inactive) each time. In addition, the GI50 in the experiment on U-251, in the experiment on EKVX, in the experiment on HOP-62, in the experiment on OVCAR-4, in the experiment on MDA-MB-435 and with OVCAR-8 was > 100 µM (inactive) each time. Besides, the GI50 in the experiment on TK-10, with MDA-N, in the experiment on NCI-H522, in the experiment on MOLT-4, with SN12C and with NCI-H460 was > 100 µM (inactive) each time. The GI50 with RXF 393 was > 100 µM (inactive).

Take `COc1cc(C2S/C(=C/c3ccccc3)C(=O)N2c2ccc(Cl)c(Cl)c2)cc(OC)c1OC` (stereo not given): the GI50 in the experiment with A549 is 53.8 µM (inactive); in the experiment on OVCAR-3, > 57.1 µM (inactive); with MCF7, 22.3 µM (inactive); with HCT-116, 19.3 µM (inactive); in the experiment on DU-145, 38.7 µM (inactive); in the experiment on SR, 26 µM (inactive). Moreover, the GI50 in the experiment with U-251 was 38.7 µM (inactive); in the experiment with EKVX it was 23.1 µM (inactive); in the experiment on HOP-62, 47.3 µM (inactive); in the experiment with OVCAR-4, 60.8 µM (inactive); in the experiment on MDA-MB-435, 7.29 µM (inactive); in the experiment with OVCAR-8, > 72.3 µM (inactive). For the same compound, the GI50 with TK-10 is > 100 µM (inactive); in the experiment on MDA-N, 19.8 µM (inactive); with NCI-H522, 14.1 µM (inactive); in the experiment on MOLT-4, 28.8 µM (inactive); in the experiment with SN12C it was > 61.4 µM (inactive); with NCI-H460, 30.7 µM (inactive). The GI50 with RXF 393 is > 51.8 µM (inactive).

For the compound `CC/C=C\C=C/C(=O)N/C=C/CCC`, the GI50 in the experiment on A549 was > 100 µM (inactive); with OVCAR-3, 58.3 µM (inactive); with MCF7, 78.3 µM (inactive); in the experiment on HCT-116 it was 38.9 µM (inactive); with DU-145 it was > 100 µM (inactive); in the experiment with SR, 33.3 µM (inactive). The GI50 in the experiment with U-251, in the experiment on EKVX, in the experiment with HOP-62, with OVCAR-4, in the experiment on MDA-MB-435 and with OVCAR-8 was > 100 µM (inactive) throughout. The GI50 with TK-10 was > 100 µM (inactive); in the experiment on MDA-N it was > 100 µM (inactive); with NCI-H522, 17.5 µM (inactive); in the experiment with MOLT-4, 22.8 µM (inactive); in the experiment with SN12C, > 100 µM (inactive); in the experiment on NCI-H460, > 100 µM (inactive). The GI50 with RXF 393 was > 100 µM (inactive).

With `Cc1ccc([N+](=O)[O-])cc1S(=O)(=O)Nc1ccc(C2=NN(S(=O)(=O)c3cc([N+](=O)[O-])ccc3C)C(c3ccccc3)C2)cc1` (stereo not given), the GI50 was 29.4 µM (inactive) in the experiment on A549; 26 µM (inactive) in the experiment with OVCAR-3; 30.8 µM (inactive) in the experiment on MCF7; 18.5 µM (inactive) in the experiment with HCT-116; 42.3 µM (inactive) in the experiment with DU-145; 32 µM (inactive) with SR. The GI50 was 29.8 µM (inactive) in the experiment with U-251; 28.8 µM (inactive) in the experiment on EKVX; 35.1 µM (inactive) in the experiment with HOP-62; 33.9 µM (inactive) in the experiment on OVCAR-4; 36.8 µM (inactive) in the experiment with MDA-MB-435; 42.2 µM (inactive) with OVCAR-8. Also, the GI50 with TK-10 is 30.9 µM (inactive); in the experiment with MDA-N, 30.1 µM (inactive); with NCI-H522, 15.7 µM (inactive); in the experiment with MOLT-4, 30 µM (inactive); in the experiment on SN12C it was 28.2 µM (inactive); in the experiment with NCI-H460, 21.6 µM (inactive). For the same compound, the GI50 with RXF 393 is 36.6 µM (inactive).

On to `Cn1c(=O)c2c(nc3n(C)c(=O)c4ccccc4n23)n(C)c1=O`, for which the GI50 in the experiment on A549 is 9.98 µM (inactive); in the experiment with OVCAR-3, > 100 µM (inactive); with MCF7 it was 17.9 µM (inactive); in the experiment with HCT-116 it was 71 µM (inactive); in the experiment with DU-145, 21.9 µM (inactive); with SR, 3.67 µM (inactive). Further, the GI50 in the experiment on U-251 was 34 µM (inactive); with EKVX, > 100 µM (inactive); in the experiment with HOP-62 it was 21 µM (inactive); in the experiment on OVCAR-4 it was > 100 µM (inactive); with MDA-MB-435, > 100 µM (inactive); with OVCAR-8 it was 33 µM (inactive). Also, the GI50 is > 100 µM (inactive) with TK-10; > 100 µM (inactive) with MDA-N; 25.1 µM (inactive) in the experiment with NCI-H522; 3.18 µM (inactive) with MOLT-4; 29.2 µM (inactive) in the experiment with SN12C; 6.93 µM (inactive) in the experiment with NCI-H460. Further, the GI50 in the experiment on RXF 393 was > 61.8 µM (inactive).

On to `O=C(c1c(F)c(F)c(F)c(F)c1F)N1CCN(C(=O)c2c(F)c(F)c(F)c(F)c2F)C1=S`, for which the GI50 is 14.4 µM (inactive) in the experiment on A549; 5.08 µM (inactive) in the experiment on OVCAR-3; 5.43 µM (inactive) with MCF7; 2.84 µM (inactive) in the experiment with HCT-116; 14 µM (inactive) with DU-145; 3.38 µM (inactive) with SR. Moreover, the GI50 in the experiment on U-251 was 6.49 µM (inactive); with EKVX it was 13 µM (inactive); in the experiment on HOP-62, 15.2 µM (inactive); with OVCAR-4 it was 5.22 µM (inactive); in the experiment on MDA-MB-435 it was 3.3 µM (inactive); in the experiment on OVCAR-8, 5.05 µM (inactive). Moreover, the GI50 in the experiment with TK-10 is 13.9 µM (inactive); in the experiment on MDA-N, 2.48 µM (inactive); in the experiment on NCI-H522 it was 0.582 µM (active); with MOLT-4, 2.77 µM (inactive); in the experiment on SN12C it was 8.11 µM (inactive); in the experiment with NCI-H460, 10.7 µM (inactive). In the experiment with RXF 393, the GI50 is 2.62 µM (inactive).

On to `O=c1oc2c([N+](=O)[O-])cc([N+](=O)[O-])cc2c2ccccc12`, for which the GI50 in the experiment on A549, in the experiment on OVCAR-3, with MCF7, in the experiment on HCT-116, in the experiment on DU-145 and in the experiment with SR was > 100 µM (inactive) in each case. The GI50 in the experiment with U-251, in the experiment with EKVX, with HOP-62, in the experiment on OVCAR-4, in the experiment on MDA-MB-435 and in the experiment on OVCAR-8 was > 100 µM (inactive) throughout. The GI50 in the experiment on TK-10, in the experiment on MDA-N, with NCI-H522, with MOLT-4, in the experiment on SN12C and in the experiment on NCI-H460 was > 100 µM (inactive) throughout. In the experiment with RXF 393, the GI50 was > 100 µM (inactive).

With `Cc1cc(N(CC(C)Br)CC(C)Br)ccc1/N=N/c1ccccc1C(=O)O` (stereo not given), the GI50 in the experiment with A549 is 3.04 µM (inactive); in the experiment on OVCAR-3, 16.9 µM (inactive); in the experiment with MCF7, 0.787 µM (active); in the experiment with HCT-116, 4.99 µM (inactive); in the experiment with DU-145, 7.67 µM (inactive); in the experiment on SR, 2.62 µM (inactive). Also, the GI50 was 4.8 µM (inactive) in the experiment on U-251; 9.12 µM (inactive) with EKVX; 4.71 µM (inactive) with HOP-62; 2.09 µM (inactive) in the experiment with OVCAR-4; 16.3 µM (inactive) in the experiment on MDA-MB-435; 13.2 µM (inactive) with OVCAR-8. For the same compound, the GI50 was 11.7 µM (inactive) with TK-10; 4.23 µM (inactive) in the experiment with MDA-N; 3.03 µM (inactive) in the experiment on NCI-H522; 16.9 µM (inactive) with MOLT-4; 4.72 µM (inactive) with SN12C; 0.454 µM (active) in the experiment on NCI-H460. Further, in the experiment on RXF 393, the GI50 was 0.881 µM (active).

On to `CC1Cc2cc(O)ccc2C2[C@@H]1C1CC[C@H](O)[C@@]1(C)C[C@@H]2O[N+](=O)[O-]` (stereo not given in full), for which the GI50 is 11 µM (inactive) with A549; 9.12 µM (inactive) with OVCAR-3; 4.86 µM (inactive) in the experiment on MCF7; 5.18 µM (inactive) in the experiment on HCT-116; 7.45 µM (inactive) in the experiment with DU-145; 5.56 µM (inactive) in the experiment on SR. The GI50 in the experiment on U-251 was 3.99 µM (inactive); with EKVX, 21.4 µM (inactive); in the experiment with HOP-62 it was 8.83 µM (inactive); in the experiment with OVCAR-4 it was 26.7 µM (inactive); in the experiment with MDA-MB-435, 2.52 µM (inactive); in the experiment on OVCAR-8 it was 16.8 µM (inactive). For the same compound, the GI50 in the experiment with TK-10 was 13.2 µM (inactive); in the experiment with MDA-N it was 1.96 µM (inactive); in the experiment on NCI-H522 it was 5.62 µM (inactive); in the experiment on MOLT-4 it was 7.48 µM (inactive); with SN12C, 14.7 µM (inactive); in the experiment on NCI-H460 it was 9.35 µM (inactive). In addition, the GI50 in the experiment on RXF 393 was 2.73 µM (inactive).
